Measured values published in BindingDB's records for doi:10.1021/jm00172a024 (Rorer Central Research, 1990).

Biological target: Cysteinyl leukotriene receptor 1 (Cavia porcellus)
Experiment: In vitro binding affinity against Cysteinyl leukotriene D4 receptor from guinea pig lung membrane

Ki: 11 nM
Compound: CCCC(CCc1nnn[nH]1)Cc1ccc(OCc2ccc3ccccc3n2)cc1 (stereo unspecified)
